From ChEMBL document CHEMBL1201862, “PubChem BioAssay data set” (2004)
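Briefly, cells in 96-well plates were exposed to five compound concentrations for 48 h, and endpoints were estimated by linear interpolation. Here, GI50 denotes the concentration required for 50% inhibition of growth.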 Active and inactive are the calls of the source. Rule as the data show it: active = GI50 up to about 1.1 µM and inactive = higher.

How the values were obtained:
Experiment in all cases: growth of human tumour cells (NCI), 48 h
[1] = test system: TK-10
[2] = test system: HL-60
[3] = test system: U-251
[4] = test system: M14
[5] = test system: OVCAR-3
[6] = test system: RPMI-8226
[7] = test system: SF-295
[8] = test system: SK-OV-3
[9] = test system: SNB-78
[10] = test system: UACC-62
[11] = test system: HOP-18
[12] = test system: HT-29
[13] = test system: DMS-273
[14] = test system: NCI-H23
[15] = test system: UACC-257
[16] = test system: OVCAR-4
[17] = test system: RXF 631
[18] = test system: SW-620
[19] = test system: CCRF-CEM
[20] = test system: DMS-114
[21] = test system: OVCAR-5
[22] = test system: A498
[23] = test system: NCI-H460
[24] = test system: HCC 2998
[25] = test system: LOX IMVI
[26] = test system: KM-20L2
[27] = test system: Malme-3M
[28] = test system: SNB-75
[29] = test system: K562
[30] = test system: CAKI-1
[31] = test system: MOLT-4
[32] = test system: OVCAR-8
[33] = test system: ACHN
[34] = test system: LXFL 529
[35] = test system: A549
[36] = test system: XF498
[37] = test system: SN12C
[38] = test system: SK-MEL-2
[39] = test system: UO-31
[40] = test system: M19-MEL
[41] = test system: HCT-15
[42] = test system: NCI-H226
[43] = test system: HOP-62
[44] = test system: NCI-H522
[45] = test system: RXF 393
[46] = test system: SNB-19
[47] = test system: SR
[48] = test system: SF-539
[49] = test system: IGROV-1
[50] = test system: EKVX
[51] = test system: SF-268
[52] = test system: SK-MEL-5
[53] = test system: HCT-116
[54] = test system: DLD-1
[55] = test system: SK-MEL-28
[56] = test system: KM12
[57] = test system: 786-0
[58] = test system: HOP-92
[59] = test system: COLO 205

Measured: GI50

COc1cc(C2c3cc4c(cc3OC3(O)COC(=O)C23)OCO4)cc(OC)c1OC (centres undefined)
inactive: [1] 51.3 µM | [2] 30.3 µM | [3] 38.4 µM | [4] 34.7 µM | [5] 33 µM | [6] 58.2 µM | [7] 26.9 µM | [8] 25.1 µM | [9] > 100 µM | [10] 44.3 µM | [11] > 100 µM | [12] 33.2 µM | [13] 36.5 µM | [14] 34.8 µM | [15] 55 µM | [16] > 100 µM | [17] 49.3 µM | [18] 35 µM | [19] 34.7 µM | [20] 34.7 µM | [21] > 100 µM | [22] 46.7 µM | [23] 56.2 µM | [24] 70 µM | [25] 47.5 µM | [26] 24.3 µM | [27] 81.1 µM | [28] 25.2 µM | [29] 42.3 µM | [30] 51.3 µM | [31] 42.6 µM | [32] 54 µM | [33] 53 µM | [34] 39.8 µM | [35] 67.5 µM | [36] 35.7 µM | [37] 67 µM | [38] > 100 µM | [39] 34.7 µM | [40] 56.6 µM | [42] 32.6 µM | [43] 62.7 µM | [44] 22.7 µM | [45] 31.3 µM | [46] 53.5 µM | [47] 16.7 µM | [48] 28.8 µM | [49] 48.9 µM | [50] 78.3 µM | [51] 85.3 µM | [52] > 10 µM | [53] 51.1 µM | [54] 45.9 µM
53.2 µM: [41]

CC1=CC(=O)NP(=O)(C23CC4CC(CC(C4)C2)C3)N1 (centres undefined)
inactive: [1] > 100 µM | [2] > 100 µM | [3] > 100 µM | [4] > 100 µM | [5] > 100 µM | [6] > 100 µM | [7] > 100 µM | [8] > 100 µM | [9] > 100 µM | [10] > 100 µM | [11] > 100 µM | [12] > 100 µM | [13] > 100 µM | [14] > 100 µM | [55] > 100 µM | [15] > 100 µM | [56] > 100 µM | [16] > 100 µM | [17] > 100 µM | [18] > 100 µM | [19] > 100 µM | [57] > 100 µM | [21] > 100 µM | [22] > 100 µM | [23] > 100 µM | [25] > 100 µM | [26] > 100 µM | [27] > 100 µM | [28] > 100 µM | [29] > 100 µM | [58] > 100 µM | [30] > 100 µM | [31] > 100 µM | [32] > 100 µM | [33] > 100 µM | [34] > 100 µM | [36] > 100 µM | [37] > 100 µM | [38] > 100 µM | [39] > 100 µM | [40] > 100 µM | [42] > 100 µM | [59] > 100 µM | [43] > 100 µM | [44] > 100 µM | [46] > 100 µM | [47] > 100 µM | [48] > 100 µM | [49] > 100 µM | [50] > 100 µM | [51] > 100 µM | [52] > 100 µM | [53] > 100 µM | [54] > 100 µM
> 100 µM: [41]
